This is an account of results in US20240245691A1 (Sitryx Therapeutics Limited, priority 2021, published 2024).

The subject of one data set is IL-6. The experiment in a line: THP-1 AlphaLISA IL-6 cytokine assay (differentiated THP-1 cells). The class given is cell-based. As to the method:
(§1) Measuring Inhibitory Effects on IL-1V Cytokine and IL-6 Output from THP-1s
(§2) The cytokine inhibition profiles of compounds of formula (I) were determined in a differentiated THP-1 cell assay. All assays were performed in RPMI-1640 growth medium (Gibco), supplemented with 10% fetal bovine serum (FBS; Gibco), 1% penicillin-streptomycin and 1% sodium pyruvate unless specified otherwise. The IL-1β and IL-6 cytokine inhibition assays were run in a background of differentiated THP-1 cells as described below. All reagents described were from Sigma-Aldrich unless specified otherwise. Compounds were prepared as 10 mM DMSO stocks.
(§3) THP-1 cells were expanded as a suspension up to 80% confluence in appropriate growth medium. Cells were harvested, suspended, and treated with an appropriate concentration of phorbol 12-myristate 13-acetate (PMA) over a 72 hr period (37° C./5% CO2).
(§4) Following 72 hrs of THP-1 cell incubation, cellular medium was removed and replaced with fresh growth media containing 1% of FBS. Working concentrations of compounds were prepared separately in 10% FBS treated growth medium and pre-incubated with the cells for 30 minutes (37° C./5% CO2). Following the 30 minute compound pre-incubation, THP-1s were treated with an appropriate concentration of LPS and the THP-1s were subsequently incubated for a 24 hr period (37° C./5% CO2). An appropriate final concentration of Nigericin was then dispensed into the THP-1 plates and incubated for 1 hour (37° C./5% CO2) before THP-1 supernatants were harvested and collected in separate polypropylene 96-well holding plates.
(§5) Reagents from each of the IL-1β and IL-6 commercial kits (Perkin Elmer) were prepared and run according to the manufacturer's instructions. Subsequently, fluorescence signal detection in a microplate reader was measured (EnVision® Multilabel Reader, Perkin Elmer).
(§6) Percentage inhibition was calculated per cytokine by normalising the sample data to the high and low controls used within each plate (+/−LPS respectively).
(§7) Dimethyl itaconate and 4-octyl itaconate were included as comparator compounds.

The nature of data set [1]: Hepatocyte stability assay, mouse. Particulars: mouse, hepatocytes, T½. The format is in vitro ADME. The text has this:
(§8) Defrosted cryo-preserved hepatocytes (viability>70%) were used to determine the metabolic stability of a compound via calculation of intrinsic clearance (CIint; a measure of the removal of a compound from the liver in the absence of blood flow and cell binding). Clearance data are particularly important for in vitro work as they can be used in combination with in vivo data to predict the half-life and oral bioavailability of a drug.
(§9) The metabolic stability in hepatocytes assay involved a time-dependent reaction using both positive and negative controls. The cells must be pre-incubated at 37° C. then spiked with test compound (and positive control); samples taken at pre-determined time intervals were analysed to monitor the change in concentration of the initial drug compound over 60 minutes. A buffer incubation reaction (with no hepatocytes present) acted as a negative control and two cocktail solutions, containing compounds with known high and low clearance values (verapamil/7-hydroxycoumarin and propranolol/diltiazem), acted as positive controls. • 1. The assay was run with a cell concentration of 0.5×10^6 cells/mL in Leibovitz buffer. • 2. All compounds and controls were run in duplicate. • 3. Compound concentration was 10 μM. • 4. All compounds and controls were incubated with both cells and buffer to show turnover is due to hepatic metabolism. • 5. All wells on the incubation plate had 326.7 μL of either cells or buffer added. • 6. Prior to assay, cell and buffer-only incubation plates were preincubated for 10 mins at 37° C. • 7. The assay was initiated by adding compounds, 3.3 μL of 1 mM in 10% DMSO-90% Buffer; final DMSO concentration is 0.1%. • 8. Samples were taken at regular timepoints (0, 5, 10, 20, 40, 60 min) until 60 mins. • 9. Sample volume was 40 μL and added to 160 μL of crash solvent (acetonitrile with internal standard) and stored on ice. • 10. At the end of the assay, the crash plates were centrifuged at 3500 rpm for 20 mins at 4° C. • 11. 80 μL of clear supernatant was removed and mixed with 80 μL of deionised water before being analysed by LC-MS/MS.
(§10) Raw LC-MS/MS data were exported to, and analysed in, Microsoft Excel for determination of intrinsic clearance. The percentage remaining of a compound was monitored using the peak area of the initial concentration as 100%. Intrinsic clearance and half-life values were calculated using a graph of the natural log of percentage remaining versus the time of reaction in minutes.
(§11) 4-Octyl itaconate was included as a comparator compound.

Data set [2] relates to cryo-preserved hepatocytes. The experiment in a line: Hepatocyte stability assay, mouse. The format is in vitro ADME. As to conditions: mouse, hepatocytes.
Text: as §8, §9, §10, §11

Data set [3] in a line: Hepatocyte stability assay, human. The format is in vitro ADME. Particulars: human, hepatocytes, T½.
Text: as §8, §9, §10, §11

Data set [4] has as its system cryo-preserved hepatocytes. The experiment in a line: Hepatocyte stability assay, human. The format is in vitro ADME. As to conditions: human, hepatocytes.
Text: as §8, §9, §10, §11

The next data set relates to IL-1β. The experiment in a line: THP-1 AlphaLISA IL-1β cytokine assay (differentiated THP-1 cells). The format is cell-based. As to conditions: Homo sapiens. As to the method:
as §1, §2, §3, §4, §5, §6, §7
For orientation: Bead proximity is the source of the signal in Alpha formats.

Where [5] appears, read: Homo sapiens, THP-1, differentiated THP-1 cells, LPS 24 hr then Nigericin 1 hour, read-out: IL-6 (IC50).
The mark [6] stands for this setting: THP-1, differentiated THP-1 cells, LPS 24 hr then Nigericin 1 hour, read-out: IL-1β (IC50).
Setting [7] is: Homo sapiens, THP-1, read-out: IL-6 (IC50).

Read-outs that look alike come from different tables or passages of the source. Bounds are passed on as bounds.

Usually IC50 stands for the concentration needed to halve the response being measured. One may read the half-life as the time in which the quantity being followed falls by half. With `C=C(C(=O)O)C(C)(C)C(=O)N[C@@H](C)c1ccc(C(F)(F)F)cc1` [Example 50, (S)-3,3-dimethyl-2-methylene-4-oxo-4-((1-(4-(trifluoromethyl)phenyl)ethyl)amino)butanoic acid], the figures for the IC50 with IL-6 (setting [5]) and with IL-1β (setting [6]) were more than 100 µM and 1.1 µM, respectively. For the same compound, the results for the half-life at 10 μM in data set [1] and in data set [3] were 1.73 h and more than 7.67 h, respectively. The Clint in data set [2] is on record as 13 μL min^−1 10^−6 cells; in data set [4] it was less than 3 μL min^−1 10^−6 cells.
On to `C=C(CC(=O)N[C@@H](C)c1ccc(C(F)(F)C(F)(F)F)cc1)C(=O)O` [Example 20, (S)-2-methylene-4-oxo-4-((1-(4-(perfluoroethyl)phenyl)ethyl)amino)butanoic acid], for which the IC50 in the data set with IL-6 (setting [5]) was more than 100 µM; in the data set on IL-1β (setting [6]), 17.4 µM. For the same compound, the half-life at 10 μM is 0.633 h in data set [1] and more than 7.67 h in data set [3]. Moreover, the Clint is 38 μL min^−1 10^−6 cells in data set [2] and less than 3 μL min^−1 10^−6 cells in data set [4].
As for `C[C@H](NC(=O)C/C(=C/c1ccccc1)C(=O)O)c1ccc(C(F)(F)F)cc1` [Example 48, (S,Z)-2-benzylidene-4-oxo-4-((1-(4-(trifluoromethyl)phenyl)ethyl)amino)butanoic acid], the half-maximal inhibitory concentration (IC50) with IL-6 (setting [5]) is more than 100 µM; in the data set on IL-1β (setting [6]), 2.3 µM. Besides, the half-life at 10 μM worked out at 0.267 h in data set [1] and 3.73 h in data set [3]. Also, the Clint in data set [2] is 95 μL min^−1 10^−6 cells; in data set [4], 7 μL min^−1 10^−6 cells.
Consider `C=C(CC(=O)N[C@@H](C)c1ccc(Br)cc1)C(=O)O` [Example 16, (S)-4-((1-(4-bromophenyl)ethyl)amino)-2-methylene-4-oxobutanoic acid], for which the 50% inhibitory concentration (IC50) in the data set with IL-6 (setting [5]) was more than 56.2 µM; in the data set on IL-1β (setting [6]), 3.8 µM; in the data set on IL-1β (THP-1, differentiated THP-1 cells, footnote a: data from repeated experiments, read-out: IL-1β (IC50), data from repeated experiments) it was 4.9 µM. Besides, the results for the half-life at 10 μM in data set [1] and in data set [3] were 4.1 h and 4.68 h, respectively. The figures for the Clint in data set [2] and in data set [4] were 7 μL min^−1 10^−6 cells and 6 μL min^−1 10^−6 cells, respectively.
On to `C[C@H](NC(=O)C/C(=C\CN(C)C)C(=O)O)c1ccc(C(F)(F)F)cc1` [Example 49, (S,E)-4-(dimethylamino)-2-(2-oxo-2-((1-(4-(trifluoromethyl)phenyl)ethyl)amino)ethyl)but-2-enoic acid], for which the IC50 was more than 100 µM with IL-6 (setting [7]) and 16.5 µM in the data set on IL-1β (THP-1, read-out: IL-1β (IC50)). Also, the half-life at 10 μM in data set [1] and in data set [3] was more than 7.67 h in each case. For the same compound, the Clint in data set [2] and in data set [4] was less than 3 μL min^−1 10^−6 cells throughout.
Take `C=C(C(=O)O)C(C)C(=O)N[C@@H](C)c1ccc(C(F)(F)F)cc1` (single isomer, unassigned; isomer 1) [Example 54]: the half-maximal inhibitory concentration (IC50) with IL-6 (differentiated THP-1 cells, LPS 24 hr then Nigericin 1 hour, read-out: IL-6 (IC50)) is more than 100 µM; in the data set with IL-1β (setting [6]) it was 31 µM. The half-life at 10 μM in data set [1] was 6.67 h; in data set [3], more than 7.67 h. Further, the Clint was 4 μL min^−1 10^−6 cells in data set [2] and less than 3 μL min^−1 10^−6 cells in data set [4].
For `C=C(CC(=O)NC(c1ccc(C(F)(F)F)cc1)C(F)(F)F)C(=O)O` (stereo not shown) [Example 7, 2-methylene-4-oxo-4-((2,2,2-trifluoro-1-(4-(trifluoromethyl)phenyl)ethyl)amino)butanoic acid], the IC50 is more than 100 µM with IL-6 (setting [5]) and 8.2 µM in the data set on IL-1β (setting [6]). In addition, the half-life at 10 μM in data set [1] was 1.25 h; in data set [3], more than 7.67 h. In addition, the Clint was 21 μL min^−1 10^−6 cells in data set [2] and less than 3 μL min^−1 10^−6 cells in data set [4].
Take `C=C(CC(=O)N[C@@H](C)c1ccc(SC(F)(F)F)cc1)C(=O)O` [Example 17]: the results for the IC50 in the data set on IL-6 (setting [5]) and with IL-1β (setting [6]) were more than 31.6 µM and 13.9 µM, respectively. The half-life at 10 μM worked out at 1.58 h in data set [1] and 3.72 h in data set [3]. Moreover, the Clint in data set [2] came out at 16 μL min^−1 10^−6 cells; in data set [4], 8 μL min^−1 10^−6 cells.
With `C=C(CC(=O)N[C@H](c1ccc(C(F)(F)F)cc1)C(F)(F)F)C(=O)O` [Example 21, (R)-2-methylene-4-oxo-4-((2,2,2-trifluoro-1-(4-(trifluoromethyl)phenyl)ethyl)amino)butanoic acid], the IC50 is more than 100 µM in the data set with IL-6 (setting [5]) and 4 µM with IL-1β (setting [6]). Further, the half-life at 10 μM in data set [1] is 0.367 h; in data set [3], more than 7.67 h. For the same compound, the values for the Clint in data set [2] and in data set [4] were 76 μL min^−1 10^−6 cells and less than 3 μL min^−1 10^−6 cells, respectively.
For the compound `C=C(CC(=O)N[C@@H](C)c1ccc(C(F)(F)F)cc1)C(=O)OCCN(C)C` [Example 26, 2-(dimethylamino)ethyl (S)-2-methylene-4-oxo-4-((1-(4-(trifluoromethyl)phenyl)ethyl)amino)butanoate], the IC50 in the data set with IL-6 (setting [5]) turned out to be 3.9 µM; in the data set on IL-1β (setting [6]), 5.1 µM. Besides, the half-life at 10 μM in data set [1] was less than 0.05 h; in data set [3] it was 0.4 h. For the same compound, the Clint was more than 460 μL min^−1 10^−6 cells in data set [2] and 62 μL min^−1 10^−6 cells in data set [4].
Regarding `C/C=C(/CC(=O)N[C@@H](C)c1ccc(C(F)(F)F)cc1)C(=O)O` [Example 41, (S,Z)-2-(2-oxo-2-((1-(4-(trifluoromethyl)phenyl)ethyl)amino)ethyl)but-2-enoic acid], the IC50 in the data set on IL-6 (setting [7]) is more than 31.6 µM; in the data set on IL-1β (THP-1, read-out: IL-1β (IC50)), 24.3 µM. Further, the half-life at 10 μM in data set [1] and in data set [3] was more than 7.67 h throughout. Also, the Clint in data set [2] and in data set [4] was less than 3 μL min^−1 10^−6 cells throughout.
Regarding `C=C(CC(=O)N[C@@H](C)c1ccc(C(F)(F)F)c(F)c1)C(=O)O` [Example 19, (S)-4-((1-(3-fluoro-4-(trifluoromethyl)phenyl)ethyl)amino)-2-methylene-4-oxobutanoic acid], the IC50 is more than 31.6 µM with IL-6 (setting [5]) and 8.8 µM in the data set with IL-1β (setting [6]). Further, the half-life at 10 μM turned out to be 6.7 h in data set [1] and 7.28 h in data set [3]. Further, the Clint in data set [2] and in data set [4] was 4 μL min^−1 10^−6 cells in each case.
Consider `C=C(CC(=O)NC1(c2ccc(C(F)(F)F)cn2)CCC1)C(=O)O` [Example 39, 2-methylene-4-oxo-4-((1-(5-(trifluoromethyl)pyridin-2-yl)cyclobutyl)amino) butanoic acid], for which the IC50 with IL-6 (setting [5]) was more than 100 µM; with IL-1β (setting [6]), 15.4 µM. Also, the half-life at 10 μM in data set [1] and in data set [3] was more than 7.67 h throughout. In addition, the Clint in data set [2] and in data set [4] was less than 3 μL min^−1 10^−6 cells in each case.
